We go through 34 compounds from patent US11485731B2, “Compounds and methods useful in the treatment of a PRMT5-mediated disorder” (ARGONAUT THERAPEUTICS LIMITED, priority 2017, dated 2022).

pIC50: −log10 of the molar value.

human PRMT5/MEP50, sequence (O14744 whole entry): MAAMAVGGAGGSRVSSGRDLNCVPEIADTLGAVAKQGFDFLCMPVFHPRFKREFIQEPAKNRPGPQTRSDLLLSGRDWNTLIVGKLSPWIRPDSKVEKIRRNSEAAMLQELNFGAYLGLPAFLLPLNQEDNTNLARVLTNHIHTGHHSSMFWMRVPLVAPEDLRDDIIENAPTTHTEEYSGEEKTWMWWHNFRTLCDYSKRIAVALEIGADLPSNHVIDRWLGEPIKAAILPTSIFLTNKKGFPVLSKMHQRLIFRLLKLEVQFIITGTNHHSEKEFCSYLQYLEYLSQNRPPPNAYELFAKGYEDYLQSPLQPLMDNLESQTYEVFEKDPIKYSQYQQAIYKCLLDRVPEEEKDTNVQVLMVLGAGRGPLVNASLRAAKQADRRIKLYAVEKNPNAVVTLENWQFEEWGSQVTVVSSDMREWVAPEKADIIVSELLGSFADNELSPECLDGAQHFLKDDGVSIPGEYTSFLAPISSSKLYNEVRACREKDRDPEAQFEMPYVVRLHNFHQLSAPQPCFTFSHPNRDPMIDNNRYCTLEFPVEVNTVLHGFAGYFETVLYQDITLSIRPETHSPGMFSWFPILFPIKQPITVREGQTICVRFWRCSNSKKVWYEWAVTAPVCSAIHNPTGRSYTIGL
human PRMT5/MEP50, sequence (Q9BQA1 whole entry partner): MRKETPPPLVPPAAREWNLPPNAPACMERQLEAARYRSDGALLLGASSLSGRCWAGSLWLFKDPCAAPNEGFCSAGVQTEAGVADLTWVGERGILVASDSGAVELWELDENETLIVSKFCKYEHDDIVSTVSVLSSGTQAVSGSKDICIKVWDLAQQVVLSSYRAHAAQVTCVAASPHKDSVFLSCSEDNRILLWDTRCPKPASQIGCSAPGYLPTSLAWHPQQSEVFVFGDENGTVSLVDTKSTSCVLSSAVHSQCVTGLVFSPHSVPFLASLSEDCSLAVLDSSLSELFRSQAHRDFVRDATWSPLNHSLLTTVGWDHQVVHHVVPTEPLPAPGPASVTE

The target in this assay is human PRMT5/MEP50 (Homo sapiens (Human), UniProt O14744). Nature of the assay: PRMT5 chemiluminescent assay. It is filed as biochemical. The conditions noted are these: human PRMT5/MEP50 expressed in HEK293 cells; biotinylated histone peptides; Histone H4 monomethyl R3 antibody; chemiluminescent readout. The essentials:
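HEK293-expressed PRMT5/MEP50, diluted to 5 ng/µL in assay buffer, reacted 60 min with rotation on plate-bound biotinylated histone peptides. Product was detected with anti-histone H4 R3 monomethyl antibody (60 min), then HRP secondary (30 min) and chemiluminescent substrate. IC50 values came from the chemiluminescence signal.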
Consider `O=C(OC[C@@H](O)CN1CCc2ccccc2C1)N1CCC(c2ccccc2)C1` (stereo partly drawn) [Example 4F, (S)-3-(3,4-dihydroisoquinolin-2(1H)-yl)-2-hydroxypropyl 3-phenylpyrrolidine-1-carboxylate], for which the pIC50 – broadly, the IC50 on a negative log10 scale, so that one unit is a factor of ten – is 7.31.
Compound `O=C(OCC(O)CN1CCc2ccccc2C1)N1CCc2ccccc2C1` (stereo not shown) [Example 3A, 3-(3,4-dihydroisoquinolin-2(1H)-yl)-2-hydroxypropyl 3,4-dihydroisoquinoline-2(1H)-carboxylate] had a pIC50 of 6.72. Compared with the last compound, the pIC50 is 0.59 log units lower.
Next, `O=C(NC[C@H](O)CN1CCc2ccccc2C1)N1CCCC(n2ccnc2)C1` (stereo partly drawn) [Example 1BL, N-((S)-3-(3,4-dihydroisoquinolin-2(1H)-yl)-2-hydroxypropyl)-3-(1H-imidazol-1-yl)piperidine-1-carboxamide]: 5.35.
`O=C(NCC(O)CN1CCc2sccc2C1)N1CCCc2ccccc21` (stereo not shown) [Example 1Y, N-(3-(6,7-dihydrothieno[3,2-c]pyridin-5(4H)-yl)-2-hydroxypropyl)-3,4-dihydroquinoline-1(2H)-carboxamide]: the pIC50 is 6.63.
In the case of `O=C(NC[C@H](O)CN1CCc2ccccc2C1)N1CCC(C(=O)N2C3CCC2COC3)CC1` [Example 1AZ, 4-(3-oxa-8-azabicyclo[3.2.1]octane-8-carbonyl)-N-((S)-3-(3,4-dihydroisoquinolin-2(1H)-yl)-2-hydroxypropyl)piperidine-1-carboxamide] it was 6.80; in that of `O=C(NCC(O)CN1CCc2ccccc2C1)N1CCCCC1` (stereo not shown) [Example 1L, N-[2-hydroxy-3-(1,2,3,4-tetrahydroisoquinolin-2-yl)propyl]piperidine-1-carboxamide], 5.78.
On to `CC(=O)N1CCCN(C(=O)NC[C@@H](O)CN2CCc3ccccc3C2)CC1` [Example 1BB, (R)-4-acetyl-N-(3-(3,4-dihydroisoquinolin-2(1H)-yl)-2-hydroxypropyl)-1,4-diazepane-1-carboxamide], for which the pIC50 is 4.29.
In the case of `O=C(NC[C@H](O)CN1CCc2ccccc2C1)N1CCCN(S(=O)(=O)c2ccccc2)CC1` [Example 1BM, (S)-N-(3-(3,4-dihydroisoquinolin-2(1H)-yl)-2-hydroxypropyl)-4-(phenylsulfonyl)-1,4-diazepane-1-carboxamide] it was 5.89; in that of `CN1CCCN(C(=O)NCC(O)CN2CCc3ccccc3C2)CC1` (stereo not shown) [Example 1CL, N-(3-(3,4-dihydroisoquinolin-2(1H)-yl)-2-hydroxypropyl)-4-methyl-1,4-diazepane-1-carboxamide], 6.36; in that of `O=C(OC[C@H](O)CN1CCc2ccccc2C1)N1CCc2ccccc2C1` [Example 4G, (R)-3-(3,4-dihydroisoquinolin-2(1H)-yl)-2-hydroxypropyl 3,4-dihydroisoquinoline-2(1H)-carboxylate], 8.10.
Compound `O=C(OCC(O)CN1CCc2ccsc2C1)N1CCCc2ccccc21` (stereo not shown) [Example 4Z, 3-(4,7-dihydrothieno[2,3-c]pyridin-6(5H)-yl)-2-hydroxypropyl 3,4-dihydroquinoline-1(2H)-carboxylate] had a pIC50 of 6.35.
In the case of `COC(=O)N1CCCN(C(=O)OCC(O)CN2CCc3ccccc3C2)CC1` (stereo not shown) [Example 4W, 1-(3-(3,4-dihydroisoquinolin-2(1H)-yl)-2-hydroxypropyl) 4-methyl 1,4-diazepane-1,4-dicarboxylate] it was 4.97; in that of `O=C(OCC(O)CN1CCc2ccsc2C1)N1CCC(c2ccccc2)C1` (stereo not shown) [Example 4AF, 3-(4,7-dihydrothieno[2,3-c]pyridin-6(5H)-yl)-2-hydroxypropyl 3-phenylpyrrolidine-1-carboxylate], 7.68; in that of `O=C(OC[C@H](O)CN1CCc2ccccc2C1)N1CCC(C(=O)N2CCOCC2)CC1` [Example 4P, (R)-3-(3,4-dihydroisoquinolin-2(1H)-yl)-2-hydroxypropyl 4-(morpholine-4-carbonyl)piperidine-1-carboxylate], 6.65.
Turning to `O=C(OC[C@@H](O)CN1CCc2ccccc2C1)N1CCc2ccccc2C1` [Example 4H, (S)-3-(3,4-dihydroisoquinolin-2(1H)-yl)-2-hydroxypropyl 3,4-dihydroisoquinoline-2(1H)-carboxylate], the pIC50 was 6.27. This pIC50 lies 0.38 log units lower than the previous one.
In the case of `O=C(OC[C@H](O)CN1CCc2ccccc2C1)N1CCC(c2ccccc2)C1` (stereo partly drawn) [Example 4E, (R)-3-(3,4-dihydroisoquinolin-2(1H)-yl)-2-hydroxypropyl 3-phenylpyrrolidine-1-carboxylate] it was 7.72; in that of `Cn1cc(C2CCCN(C(=O)NC[C@H](O)CN3CCc4ccccc4C3)C2)ccc1=O` (stereo partly drawn) [Example 1BR, N-((S)-3-(3,4-dihydroisoquinolin-2(1H)-yl)-2-hydroxypropyl)-3-(1-methyl-6-oxo-1,6-dihydropyridin-3-yl)piperidine-1-carboxamide], 6.31; in that of `O=C(NC[C@H](O)CN1CCc2ccccc2C1)N1CCCC(N2CCCOCC2)C1` (stereo partly drawn) [Example 1CC, N-((S)-3-(3,4-dihydroisoquinolin-2(1H)-yl)-2-hydroxypropyl)-3-(1,4-oxazepan-4-yl)piperidine-1-carboxamide], 5.78.
The compound `O=C(NC[C@@H](O)CN1CCc2ccccc2C1)N1CCC(C(=O)N2C3CCC2COC3)CC1` [Example 1BE, 4-(3-oxa-8-azabicyclo[3.2.1]octane-8-carbonyl)-N-((R)-3-(3,4-dihydroisoquinolin-2(1H)-yl)-2-hydroxypropyl)piperidine-1-carboxamide] showed a pIC50 of 5.51.
In the case of `O=C(NC[C@H](O)CN1CCc2ccccc2C1)N1CCC(N2CCSCC2)C1` (stereo partly drawn) [Example 1CE, N-((S)-3-(3,4-dihydroisoquinolin-2(1H)-yl)-2-hydroxypropyl)-3-thiomorpholinopyrrolidine-1-carboxamide] it was 5.51; in that of `O=C(NC[C@H](O)CN1CCc2ccccc2C1)N1CCS[C@@H](c2ccccc2)C1` (single isomer, unassigned) [Example 5C, (S)-N-((S)-3-(3,4-dihydroisoquinolin-2(1H)-yl)-2-hydroxypropyl)-2-phenylthiomorpholine-4-carboxamide or (R)-N-((S)-3-(3,4-dihydroisoquinolin-2(1H)-yl)-2-hydroxypropyl)-2-phenylthiomorpholine-4-carboxamide], 7.77.
In the case of `O=C(NCC(O)CN1CCc2ccccc2C1)N1CCCC(c2ccccc2)C1` (stereo not shown) [Example 1E, N-[2-hydroxy-3-(1,2,3,4-tetrahydroisoquinolin-2-yl)propyl]-3-phenylpiperidine-1-carboxamide] it was 8.10.
In the case of `O=C(NC[C@H](O)CN1CCc2ccccc2C1)N1CC[C@@H](c2ccccc2)C1` [Example 1CI, (S)-N-((S)-3-(3,4-dihydroisoquinolin-2(1H)-yl)-2-hydroxypropyl)-3-phenylpyrrolidine-1-carboxamide] it was 7.57.
Take `O=C(NC[C@H](O)CN1CCc2ccccc2C1)N1CCC(c2ccccn2)C1` (stereo partly drawn) [Example 1BA, N-((S)-3-(3,4-dihydroisoquinolin-2(1H)-yl)-2-hydroxypropyl)-3-(pyridin-2-yl)pyrrolidine-1-carboxamide]: the pIC50 was 7.01.
Next, `CC(=O)N1CCCN(C(=O)OCC(O)CN2CCc3ccccc3C2)CC1` (stereo not shown) [Example 4V, 3-(3,4-dihydroisoquinolin-2(1H)-yl)-2-hydroxypropyl 4-acetyl-1,4-diazepane-1-carboxylate]: 4.41.
In the case of `O=C(NC[C@H](O)CN1CCc2ccccc2C1)N1CCCC(n2cccn2)C1` (stereo partly drawn) [Example 1BK, N-((S)-3-(3,4-dihydroisoquinolin-2(1H)-yl)-2-hydroxypropyl)-3-(1H-pyrazol-1-yl)piperidine-1-carboxamide] it was 6.40; in that of `O=C(NC[C@H](O)CN1CCc2ccccc2C1)N1CCCc2ccccc21` [Example 1AJ, (S)-N-(3-(3,4-dihydroisoquinolin-2(1H)-yl)-2-hydroxypropyl)-3,4-dihydroquinoline-1(2H)-carboxamide], 7.10.
Next, `O=C(NC[C@H](O)CN1CCc2ccccc2C1)N1CCCSC(c2ccccc2)C1` (stereo partly drawn) [Example 1BN, N-((S)-3-(3,4-dihydroisoquinolin-2(1H)-yl)-2-hydroxypropyl)-2-phenyl-1,4-thiazepane-4-carboxamide]: 6.98.
Take `O=C(NC[C@H](O)CN1CCc2ccccc2C1)N1CCCC(N2CCOCC2)C1` (stereo partly drawn) [Example 1BW, N-((S)-3-(3,4-dihydroisoquinolin-2(1H)-yl)-2-hydroxypropyl)-3-morpholinopiperidine-1-carboxamide]: the pIC50 is 5.54.
In the case of `COC(=O)N1CCCN(C(=O)NC[C@H](O)CN2CCc3ccccc3C2)CC1` [Example 1AS, Methyl (S)-4-((3-(3,4-dihydroisoquinolin-2(1H)-yl)-2-hydroxypropyl)carbamoyl)-1,4-diazepane-1-carboxylate] it was 6.95; in that of `O=C(NCC(O)CN1CCc2ccccc2C1)N1CCC(C(=O)N2C3CCC2COC3)CC1` (stereo not shown) [Example 1R, 4-(3-oxa-8-azabicyclo[3.2.1]octane-8-carbonyl)-N-(3-(3,4-dihydroisoquinolin-2(1H)-yl)-2-hydroxypropyl)piperidine-1-carboxamide], 7.96.
In the case of `O=C(NCCCN1CCc2ccccc2C1)N1CCCC(c2ccccc2)C1` (stereo not shown) [Example 6B, N-(3-(3,4-dihydroisoquinolin-2(1H)-yl)propyl)-3-phenylpiperidine-1-carboxamide] it was 5.77.
Next, `O=C(NCC(O)CN1CCc2ccccc2C1)N1CCC(C(=O)N2CCOCC2)CC1` (stereo not shown) [Example 1O, N-(3-(3,4-dihydroisoquinolin-2(1H)-yl)-2-hydroxypropyl)-4-(morpholine-4-carbonyl)piperidine-1-carboxamide]: 7.29; `O=C(NC[C@H](O)CN1CCc2ccccc2C1)N1CCCC(c2ccccn2)C1` (stereo partly drawn) [Example 1BQ, N-((S)-3-(3,4-dihydroisoquinolin-2(1H)-yl)-2-hydroxypropyl)-3-(pyridin-2-yl)piperidine-1-carboxamide]: 7.32.
